For one assay, the target named is Troponin, cardiac muscle (Homo sapiens, UniProt P19429+P45379+P63316). Nature of the assay: Fluorescence-based biochemical high throughput dose response assay for activators of the calcium sensitivity of cardiac Regulated Thin Filaments (RTF). [Related pubchem assays (depositor defined):AID493008, AID493018, AID504382, AID504383]. Format: protein-complex assay.

In another assay the target is T1, X-box-binding protein 1 (Homo sapiens, UniProt P17861).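 Further: confirmatory dose-response counter-screen serving a CHOP assay.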
T1 sequence (P17861 whole entry): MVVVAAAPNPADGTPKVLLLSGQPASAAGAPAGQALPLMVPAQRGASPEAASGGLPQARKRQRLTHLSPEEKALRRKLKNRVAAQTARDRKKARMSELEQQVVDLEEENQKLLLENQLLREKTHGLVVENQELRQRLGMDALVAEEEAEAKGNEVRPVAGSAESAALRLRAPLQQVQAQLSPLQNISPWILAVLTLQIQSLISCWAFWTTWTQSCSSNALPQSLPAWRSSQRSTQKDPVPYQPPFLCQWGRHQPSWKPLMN
Format: functional, Cricetulus griseus.

The next assay concerns the target Melanocortin receptor 4 (Homo sapiens, UniProt P32245). The format is functional, cell-based.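 Further: Cell-based assay with luminescence read-out, confirmatory dose-response testing for agonist activity of biased ligands at MC4R; human U2OS cells with tagged receptor and beta-arrestin; potency of agonists that increase receptor coupling to beta-arrestin.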
For the next assay, the target named is T2, Coagulation factor XII (Homo sapiens, UniProt P00748).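 Further: activated factor XIIa alpha cleaving a fluorogenic AMC peptide substrate; inhibitor potency from loss of enzyme activity.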
T2 sequence (P00748 whole entry): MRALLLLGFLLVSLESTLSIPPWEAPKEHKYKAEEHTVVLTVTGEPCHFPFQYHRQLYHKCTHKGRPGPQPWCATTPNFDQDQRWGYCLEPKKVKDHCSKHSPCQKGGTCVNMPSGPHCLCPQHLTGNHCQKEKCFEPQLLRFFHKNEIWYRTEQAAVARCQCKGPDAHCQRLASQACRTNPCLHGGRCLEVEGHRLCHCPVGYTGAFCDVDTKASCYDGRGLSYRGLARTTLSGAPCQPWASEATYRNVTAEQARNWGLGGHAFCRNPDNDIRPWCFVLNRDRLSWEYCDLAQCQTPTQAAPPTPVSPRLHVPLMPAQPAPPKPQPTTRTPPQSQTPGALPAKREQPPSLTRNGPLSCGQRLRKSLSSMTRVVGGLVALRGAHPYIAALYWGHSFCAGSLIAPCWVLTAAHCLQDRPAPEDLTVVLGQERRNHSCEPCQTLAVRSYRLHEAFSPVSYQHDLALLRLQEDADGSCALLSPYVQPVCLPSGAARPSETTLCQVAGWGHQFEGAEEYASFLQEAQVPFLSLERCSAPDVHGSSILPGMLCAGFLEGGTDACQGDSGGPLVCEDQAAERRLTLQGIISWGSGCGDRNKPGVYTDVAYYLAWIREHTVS
Format: functional.

The next assay concerns the target T3, Leucine aminopeptidase (Plasmodium falciparum 3D7, UniProt Q8IL11).
T3 sequence (Q8IL11 whole entry): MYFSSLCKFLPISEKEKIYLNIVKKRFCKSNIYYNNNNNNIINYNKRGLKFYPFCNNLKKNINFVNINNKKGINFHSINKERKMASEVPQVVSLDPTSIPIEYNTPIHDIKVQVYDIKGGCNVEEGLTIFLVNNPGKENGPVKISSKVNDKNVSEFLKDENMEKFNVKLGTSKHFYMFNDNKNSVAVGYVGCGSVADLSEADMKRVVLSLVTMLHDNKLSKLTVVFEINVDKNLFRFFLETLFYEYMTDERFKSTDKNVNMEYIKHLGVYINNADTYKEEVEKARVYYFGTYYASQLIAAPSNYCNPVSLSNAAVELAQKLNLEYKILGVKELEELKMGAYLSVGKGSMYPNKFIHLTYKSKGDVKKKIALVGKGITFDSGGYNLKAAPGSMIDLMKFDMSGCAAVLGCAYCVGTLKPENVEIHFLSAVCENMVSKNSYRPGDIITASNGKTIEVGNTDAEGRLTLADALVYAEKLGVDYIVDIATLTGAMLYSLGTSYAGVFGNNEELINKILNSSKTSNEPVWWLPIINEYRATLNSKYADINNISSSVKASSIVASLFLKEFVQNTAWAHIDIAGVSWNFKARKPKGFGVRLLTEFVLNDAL
Briefly: P. falciparum M17LAP inhibitors, primary screen, biochemical, fluorogenic H-Leu-NHMec substrate, 1536-well (AID 1619). Format: functional.

In assay [1] the target is DNA dC->dU-editing enzyme APOBEC-3G (Homo sapiens, UniProt Q9HC16). Nature of the assay: Dose Response confirmation of small molecule APOBEC3G DNA Deaminase Inhibitors via a fluorescence-based single-stranded DNA deaminase assay. [Related pubchem assays (depositor defined):AID493012, AID493028]. Format: functional.
In the next assay the test system is H9c2. Briefly: cells. Format: functional, cell-based. The note with it: Rattus norvegicus, H9c2, Myocardium.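 Further: confirmatory concentration-response retest of ultra-high-throughput screening hits for modulation of myocardial damage; cell death induced by hydrogen peroxide oxidative stress; compound pretreatment for 60 min then peroxide exposure for 2 h; potency is for protecting the cells against peroxide damage rather than for killing them.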
Assay [2] can be described thus: microbe, parasite or virus in culture. Format: functional. As to conditions: Mycobacterium tuberculosis.
Assay [3] concerns the target T4, Short transient receptor potential channel 4 (Mus musculus, UniProt Q9QUQ5).
T4 sequence (Q9QUQ5 whole entry): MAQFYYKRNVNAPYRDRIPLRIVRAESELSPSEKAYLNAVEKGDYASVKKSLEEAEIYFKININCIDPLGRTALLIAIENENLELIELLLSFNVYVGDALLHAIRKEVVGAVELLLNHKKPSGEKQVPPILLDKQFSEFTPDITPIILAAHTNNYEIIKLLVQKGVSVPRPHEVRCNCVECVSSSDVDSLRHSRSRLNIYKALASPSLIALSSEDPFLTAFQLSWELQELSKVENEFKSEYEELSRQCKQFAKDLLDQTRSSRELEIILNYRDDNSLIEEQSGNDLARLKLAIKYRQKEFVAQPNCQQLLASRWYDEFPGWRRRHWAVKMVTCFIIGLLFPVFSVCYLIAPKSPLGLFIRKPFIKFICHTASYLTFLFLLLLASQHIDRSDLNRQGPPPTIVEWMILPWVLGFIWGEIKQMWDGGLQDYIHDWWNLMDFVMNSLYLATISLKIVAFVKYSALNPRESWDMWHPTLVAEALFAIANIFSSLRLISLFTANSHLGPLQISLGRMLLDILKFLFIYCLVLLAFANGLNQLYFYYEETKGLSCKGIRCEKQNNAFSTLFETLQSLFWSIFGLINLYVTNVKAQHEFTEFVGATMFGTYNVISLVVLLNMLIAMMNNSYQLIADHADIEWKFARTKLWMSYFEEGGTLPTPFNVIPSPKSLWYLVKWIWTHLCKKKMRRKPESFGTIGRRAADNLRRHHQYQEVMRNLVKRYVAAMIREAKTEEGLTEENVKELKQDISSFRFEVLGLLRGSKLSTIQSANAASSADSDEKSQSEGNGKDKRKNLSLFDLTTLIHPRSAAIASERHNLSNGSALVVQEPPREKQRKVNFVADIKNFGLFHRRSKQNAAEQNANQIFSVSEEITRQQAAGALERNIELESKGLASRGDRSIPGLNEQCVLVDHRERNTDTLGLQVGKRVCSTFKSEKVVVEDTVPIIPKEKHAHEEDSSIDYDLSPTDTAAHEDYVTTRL
Nature of the assay: calcium entry via TRPC4 opening agents – cell-based, HEK293 TRPC4/mu-opioid, Fluo-4 calcium, dose response (AID 434937). Format: functional.

The next assay concerns the target Cytochrome P450 2C19 (Homo sapiens, UniProt P33261). Briefly: Cytochrome panel assay with activity outcomes. Panel member name: p450-cyp2c19 Compounds with AC50 equal or less than 10 uM are considered active. Format: functional. As to conditions: read-out: AC50.
The target in assay [4] is T5, Replicative DNA helicase DnaB (Mycobacterium tuberculosis, UniProt P9WMR3).
T5 sequence (P9WMR3 whole entry): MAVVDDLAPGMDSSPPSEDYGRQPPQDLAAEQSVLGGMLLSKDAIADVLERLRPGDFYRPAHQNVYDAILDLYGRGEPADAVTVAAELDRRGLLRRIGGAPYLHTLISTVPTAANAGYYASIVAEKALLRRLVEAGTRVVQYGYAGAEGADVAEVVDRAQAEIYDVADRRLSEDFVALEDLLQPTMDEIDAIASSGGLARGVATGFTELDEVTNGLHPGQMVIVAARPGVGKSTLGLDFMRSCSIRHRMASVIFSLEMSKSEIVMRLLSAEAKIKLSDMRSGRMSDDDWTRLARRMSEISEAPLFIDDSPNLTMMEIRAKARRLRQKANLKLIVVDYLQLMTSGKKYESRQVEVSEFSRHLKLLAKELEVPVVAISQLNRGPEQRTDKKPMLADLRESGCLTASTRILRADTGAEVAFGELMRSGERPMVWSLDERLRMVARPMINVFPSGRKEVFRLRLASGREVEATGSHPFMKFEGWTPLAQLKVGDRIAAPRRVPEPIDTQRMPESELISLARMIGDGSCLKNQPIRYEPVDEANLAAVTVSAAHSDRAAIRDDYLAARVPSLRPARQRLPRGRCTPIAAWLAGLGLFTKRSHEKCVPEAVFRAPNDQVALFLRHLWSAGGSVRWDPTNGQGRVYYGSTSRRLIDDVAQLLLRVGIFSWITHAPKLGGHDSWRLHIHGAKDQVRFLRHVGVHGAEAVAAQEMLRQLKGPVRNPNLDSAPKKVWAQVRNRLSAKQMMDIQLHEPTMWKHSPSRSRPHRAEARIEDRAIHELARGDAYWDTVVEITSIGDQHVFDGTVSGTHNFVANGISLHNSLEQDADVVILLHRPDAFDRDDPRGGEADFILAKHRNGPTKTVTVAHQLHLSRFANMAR
Nature of the assay: DnaB intein splicing inhibitors, dose response, biochemical, cell-free fluorescence (AID 449749). Format: functional.

The next assay addresses T6, Protein RecA (Mycobacterium tuberculosis, UniProt P9WHJ3).
T6 sequence (P9WHJ3 whole entry): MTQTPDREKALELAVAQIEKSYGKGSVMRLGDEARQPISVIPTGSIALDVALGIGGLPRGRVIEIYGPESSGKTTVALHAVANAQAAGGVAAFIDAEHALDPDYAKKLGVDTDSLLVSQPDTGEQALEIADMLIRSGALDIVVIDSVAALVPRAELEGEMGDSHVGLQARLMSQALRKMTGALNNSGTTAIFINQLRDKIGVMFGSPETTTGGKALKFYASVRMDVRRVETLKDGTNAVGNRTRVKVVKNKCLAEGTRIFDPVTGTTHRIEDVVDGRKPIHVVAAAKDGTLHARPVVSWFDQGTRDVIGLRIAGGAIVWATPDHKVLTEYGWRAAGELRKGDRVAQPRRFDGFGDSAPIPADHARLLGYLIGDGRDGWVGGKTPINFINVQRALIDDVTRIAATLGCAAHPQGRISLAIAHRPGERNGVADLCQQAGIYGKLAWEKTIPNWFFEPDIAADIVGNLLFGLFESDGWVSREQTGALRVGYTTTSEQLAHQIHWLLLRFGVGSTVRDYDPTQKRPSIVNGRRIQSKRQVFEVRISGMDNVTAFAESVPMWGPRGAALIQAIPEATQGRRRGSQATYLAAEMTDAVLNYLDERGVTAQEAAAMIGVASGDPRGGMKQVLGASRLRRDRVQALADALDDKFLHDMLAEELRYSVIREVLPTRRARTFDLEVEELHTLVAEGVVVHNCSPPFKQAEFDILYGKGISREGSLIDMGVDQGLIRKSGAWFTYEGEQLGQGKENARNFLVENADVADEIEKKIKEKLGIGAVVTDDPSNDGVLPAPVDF
Nature of the assay: Fluorescence Cell-Free Homogeneous Dose Retest to Identify Inhibitors of RecA-Intein Splicing Activity. [Related pubchem assays (depositor defined):AID2097, AID2223, AID489010, AID492950]. Format: functional.

A further assay addresses T7, Cytochrome P450 1A2 (Homo sapiens, UniProt P05177).
T7 sequence (P05177 whole entry): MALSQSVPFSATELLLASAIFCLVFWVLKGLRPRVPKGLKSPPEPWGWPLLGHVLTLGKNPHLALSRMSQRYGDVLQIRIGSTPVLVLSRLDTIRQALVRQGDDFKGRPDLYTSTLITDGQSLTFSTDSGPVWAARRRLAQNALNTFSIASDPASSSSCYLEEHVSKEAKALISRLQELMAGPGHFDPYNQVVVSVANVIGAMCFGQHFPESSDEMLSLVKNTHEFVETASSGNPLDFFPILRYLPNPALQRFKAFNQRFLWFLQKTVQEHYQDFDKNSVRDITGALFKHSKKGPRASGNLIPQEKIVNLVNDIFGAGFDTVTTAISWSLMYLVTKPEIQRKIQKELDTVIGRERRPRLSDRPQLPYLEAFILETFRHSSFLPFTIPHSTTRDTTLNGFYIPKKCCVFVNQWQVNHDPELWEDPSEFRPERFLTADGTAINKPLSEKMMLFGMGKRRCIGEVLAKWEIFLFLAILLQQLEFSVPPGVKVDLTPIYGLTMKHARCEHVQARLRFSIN

The text below walks through data of ChEMBL document CHEMBL1201862, “PubChem BioAssay data set” (2004).

Where “and” joins values, the source holds several entries; their conditions need not be identical. Identical values can stand only once. Calls of active or inactive are those of the source.

Consider `Cc1ccc(S(=O)(=O)NCCCCCC(=O)Nc2ccccc2C)cc1`, for which, at Troponin, cardiac muscle, the EC50 (as a rule, the concentration giving half of the maximal effect) is > 71.5 µM (inactive).

For the molecule `Cc1ccc2nc(Nc3ccc4[nH]c(O)nc4c3)c(-n3nc(C)cc3C)nc2c1`, the “Absolute IC50 (XBP1)” value on X-box-binding protein 1 is 10 µM. The EC50 on Melanocortin receptor 4 was > 89.2 µM (inactive).

Turning to `Cc1nc2ccccc2n1C1CCN(Cc2nnnn2CCc2ccccc2)CC1`, the IC50 (as a rule, the concentration that inhibits the measured activity by half) at Coagulation factor XII was > 50 µM (inactive).

Regarding `CCOc1ccccc1N1C(=O)CC(Sc2n[nH]c(-c3ccccc3)n2)C1=O` (configuration not stated), the values for the IC50 (at Leucine aminopeptidase; in assay [1]) were 8.97 µM (active) and 9.92 µM (active), respectively.

With `COc1cccc(CC(NC(C)=O)C(=O)NC2CCN(c3nc(C)cc(C)c3C#N)CC2)c1OC` (configuration not stated), the EC50 at Troponin, cardiac muscle was > 71.5 µM (inactive).

As for `COC(=O)C(C)Sc1nnc(Cc2cc(O)nc(O)n2)n1-c1ccc(Cl)cc1` (configuration not stated), at Coagulation factor XII, the IC50 was > 50 µM (inactive).

Turning to `COc1ccc(/C=N/NC(=O)c2cc(OC)c(OC)c(OC)c2)cc1CN1CCc2cc(OC)c(OC)cc2C1C` (configuration not stated), the EC50 at Troponin, cardiac muscle is > 71.5 µM (inactive). Besides, the IC50 in the assay on H9c2 is 19.5 µM (active).

For the molecule `O=C1NCN(c2ccccc2)C12CCN(CCCC(c1ccc(F)cc1)c1ccc(F)cc1)CC2`, the CC50 in assay [2] was 32.9 µM (active). Also, the EC50 was 6.68 µM (active) in [3] and 20.2 µM (active) at Protein RecA. Also, the “Absolute IC50 (XBP1)” value at X-box-binding protein 1 was found to be 10 µM. For the same molecule, the AC50 (in general, the midpoint of the concentration-response curve, whichever way the signal moves) was 7.94 µM (inconclusive) and 15.8 µM (inconclusive) at Cytochrome P450 2C19; 9.69 µM (active) in assay [4]; 12.6 µM (inconclusive) on Cytochrome P450 1A2.
